According to patent US6696545B1, “Cytomodulating lipophilic peptides for modulating immune system activity and inhibiting inflammation” (Sangstat Medical Corporation, priority 1997, dated 2004):
Blank lines part the entries; values can stand above or below the compound they belong to. Ends that are not written are not given here.

Legend:
[1] = tested on: TNF-α production by RAW264.7 macrophage cells; assay: LPS-stimulated TNF-α production, ELISA of culture supernatants; type: cell-based; settings: 10 μg/ml LPS, 1 to 100 μM peptide, 24 hours
Method: In order to determine the effect of bc peptides on the production of inflammatory cytokines, RAW264.7 macrophage cells were stimulated in culture with 10 μg/ml bacterial lipopolysaccharide (LPS) to produce the inflammatory cytokine tumor necrosis factor-α (TNF-α) (see […] et al., J. Immunol. 153:1674 (1994) and Tonetti et al., Biochem. Biophys. Res. Comm. 230:636-640 (1997)), either in the absence or presence (1 to 100 μM) of test peptide. Following incubation for 24 hours, the amount of TNF-α in the culture supernatents was determined by ELISA.

recombinant hsc70 = molecular target: T1, recombinant hsc70 (Bos taurus, UniProt P19120); assay: hsc70 binding ELISA / competition with biotinylated-2702.75-84
T1 construct: purchased Stressgen, Victoria, Canada
Method: To determine if bc peptides are capable of binding to hsc70, protein binding assays were performed. Specifically, peptide 2702.75-84 was synthesized in a biotinylated form with biotin attached to the N-terminus via a six carbon spacer. ELISA plates (Nunc Maxisorb, Nunc, USA) were coated with 100 ng/ml of recombinant hsc70 (Stressgen, Victoria, Canada) in 100 mM Na-citrate buffer, pH 4.0 overnight at 4° C. Subsequently, remaining binding sites were blocked by incubating the plates with PBS/0.1% Tween 20 (PBS/Tween; Sigma) for 2 hours at room temperature. Unbound material was removed by washing the plates three times with PBS/Tween. Following the addition of biotinylated 2702.75-84 in PBS/Tween/1% DMSO, the plates were incubated for 2 hours at room temperature, washed three times, incubated with 0.1 μg/ml streptavidin conjugated to horseradish peroxidase (streptavidin-HRP) (Jackson ImmunoResearch Laboratories, West Grove, Pa.) and washed again. Bound streptavidin-HRP was detected using 3 mg/ml o-phenylenediamine (OPD; Sigma) in substrate buffer (SangStat, Menlo Park, Calif.). The reaction was stopped by addition of 1M HCl and absorbance (OD490-OD605) was measured using an ELISA plate reader. Binding of unlabeled peptide was measured in a competition assay. […] Bound biotinylated-2702.75-84 was then detected as described above.

[2] = tested on: C57B1/6 heart allograft in CBA mice; assay: Vascularized fully mismatched heterotopic heart allograft model; type: in vivo, mouse; settings: intraperitoneal
Method: The immunosuppressive activity of the bc peptides was evaluated in a vascularized fully mismatched mouse heart allograft model. Specifically, abdominal heterotopic heart transplantation was performed as described previously by Ono and Lindsey, J. Thoracic Cardiovasc. Surg. 7:225 (1969)). CBA mice recipients of C57B1/6 hearts were treated daily with various doses of peptide following organ transplantation. Peptides were dissolved in DMSO and diluted in PBS (final DMSO concentration was 10%) before intraperitoneal administration. Animals were treated starting at the day of transplantation until day five or nine. Graft survival was monitored daily by direct palpation, and rejection was defined as termination of palpable cardiac contractility. The statistical significance of prolongation of heart allograft survival was calculated using the Mann-Whitney test.

[3] = tested on: C57BL/6 neonatal heart allograft in CBA/J recipient mice; assay: Heterotopic neonatal cardiac transplant into ear pinnae, direct injection into allograft; type: in vivo, mouse
Method: We next sought to determine if local delivery of bc peptides via plasmid-mediated gene transfer could extend in vivo transplant survival in a murine heterotopic cardiac transplant model. Specifically, C57BL/6 donor neonatal hearts were transplanted subcutaneously into the ear pinnae of CBA/J recipient mice, bc peptide, or 20 μg of plasmid DNA encoding the bc peptide of interest, was injected directly into the allograft at the time of transplantation. Survival of the allografts was determined by electrocardiogram monitoring and rejection was determined as the cessation of cardiac electrical activity. Graft survival is expressed in days (mean±SEM). Statistical significance was determined by an unpaired Student's t-test.

[4] = tested on: T-cell proliferation (spleen cells isolated from CBA mice stimulated with anti-CD3 monoclonal antibody); assay: Antiproliferative activity: anti-CD3 stimulated spleen cells, [3H]-TdR incorporation; type: cell-based, mouse; settings: 3 days
Excerpt: Adult 6-8 week old male C57BL6/J (B6, […]), Balb/c(H-2^d) and CBA/J (H-2^k) mice were purchased from the Jackson Laboratory, Bar Harbor, Me. They were kept and maintained in the animal facility in the SangStat Medical Corporation according to NIH guidelines and regulations of the Department of Health.
Peptides were synthesized at synt:em (Nimes, France) using an automated peptide synthesizer and Fmoc chemistry. All peptides were synthesized as amides and then converted to acetate salts. Peptides were purified by preparative reverse phase HPLC and shown to be >95% homogenous by analytical reverse phase HPLC. Amino acid content was confirmed by amino acid analysis. Before use, peptides were first dissolved in 1 volume of DMSO (Sigma) followed by addition of 99 volume of culture medium. The final concentration of DMSO in culture was not greater than 0.25%. […]
Spleen cells isolated from CBA mice were then stimulated (2×10^5/well) with anti-CD3 monoclonal antibody (Pharmingen, San Diego) at a final concentration of 0.1 to 1 μg/ml in 96-well, round-bottom microculture plates (Nunc, Denmark). bc peptides at various concentrations were added at the beginning of the culture. […] Cells were then harvested using a Filtermate 196 Harvester (Packard, Downers Grove, Ill.) and the degree of thymidine incorporation was measured using a TopCount Microplate Scintillation Counter (Packard).

[5] = tested on: T-cell mediated lysis of EL4 target cells by CBA to B6 effector cells; assay: Cytotoxic T-cell activity, 51Cr release assay; type: cell-based, mouse; settings: concentrations up to 100 μg/ml, 4-hour incubation
Method: To assay the effect of peptides on cytotoxic T cell activity, CBA to B6 effector cells were prepared following a 6-day culture of 4×10^6 CBA spleen cells with 5×10^6 mitomycin-treated B6 spleen cells in wells of a 24 well plate (Nuncion Delta, Nunc, Denmark) in RPMI-1640 with 10% FBS. Effector cells were then harvested and washed. EL4 (H-2^b), a mouse lymphoma induced in C57BL/6N was used as target cells. Cultured EL4 cells were maintained and sub-cultured once every three days […] Effector (E) and target (T) cells were then added into V-shaped tissue culture plates (Nunc, Denmark) at E:T ratios of 3:1, 10:1, 30:1, 100:1, respectively. Peptides were diluted to the working concentrations with R-10 medium and added at the beginning of the 4-hour incubation period. For the determination of maximal release, 1% Triton X-100 was added to separate wells. Plates were then centrifuged for 2 min. to increase cellular contact before the 4-hour incubation period. After incubation, 75 μl supernatant from each well was collected and the amount of ^51Cr was counted using a TopCount Scintillation Counter. The degree of cell lysis was calculated using the formula below: [formula]

[6] = molecular target: T2, heme oxygenase (HO, hsp32) (Mus musculus, UniProt P14901); assay: Heme oxygenase activity in spleen homogenate (bilirubin formation); type: biochemical; settings: control peptide
T2 construct: Spleen homogenates were used as the source of HO for all activity measurements; from tissue; host or cells: mouse spleen homogenate
T2 sequence (P14901 1-289): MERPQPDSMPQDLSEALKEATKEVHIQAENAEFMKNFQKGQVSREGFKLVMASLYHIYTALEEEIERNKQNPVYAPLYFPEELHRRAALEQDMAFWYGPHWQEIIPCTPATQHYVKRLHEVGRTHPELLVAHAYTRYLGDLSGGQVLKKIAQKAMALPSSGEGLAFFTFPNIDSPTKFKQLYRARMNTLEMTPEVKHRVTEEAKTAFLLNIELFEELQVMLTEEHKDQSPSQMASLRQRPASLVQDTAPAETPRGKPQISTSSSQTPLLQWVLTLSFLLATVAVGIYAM
Method: The effect of the bc peptides on hsp32 (heme oxygenase) was evaluated by measuring heme oxygenase (HO) in the presence or absence of bc peptides. Specifically, mouse spleen samples were homogenized on ice in a Tris-Cl lysis buffer (pH 7.4) containing 0.5% Triton X-100 and protease inhibitors. Samples were frozen in small aliquots until use. Spleen homogenates were used as the source of HO for all activity measurements. Biliverdin reductase was purified from rat liver by the method described by Kutty and Maines, J. Biol Chem., 256:3956 (1981). HO activity was measured by mixing 100 μl of spleen homogenate with 0.8 mM NADPH, 0.8 mM glucose-6-phosphate, 1.0 unit G-6-P dehydrogenase, 1 mM MgCl2 and 10 μl of biliverdin reductase at 4° C. The reaction was initiated by the addition of Hemin (20 μl of 2.5 mM). The reaction mixture was incubated at 37° C. in the dark for 30 min. At the end of the incubation period, any insoluble material was centrifuged and supernatants were analyzed for bilirubin concentration by a modified procedure of Hillman and Beyer, Z. Klin. Chem. 5:92 (1981) (Sigma Diagnostics, kit #552). Controls included spleen samples in the absence of the NADPH generating system and all components of the reaction mixture in the absence of the spleen homogenates.

[7] = tested on: LPS-induced septic shock in mice; assay: LPS septic shock model, survival; type: in vivo, mouse; settings: 20 mg/kg peptide in mannitol 16 h before 100 mg/kg LPS
Excerpt: Administration of LPS to mice provides an accepted animal model for septic shock (see Otterbein et al., Amer. J. Physiol. 272(2):1 (1997), Albrecht et al., Hepatology 26:1553-1559 (1997), Haziot et al., J. Immunol. 154:6529-6532 (1995) and Otterbein et al., Am. J. Respir. Cell Mol. Biol. 13:595-601 (1995)). To provide further evidence of the utility of bc peptides for the treatment of inflammatory responses and inflammatory conditions (such as septic shock), we tested the effect of bc peptides on the survival of mice following administration of LPS thereto. Specifically, mice were treated with 20 mg/kg of control peptide 2705 or bc peptide in mannitol or with mannitol alone. Sixteen hours after administration of the peptide in mannitol or mannitol alone, the mice were injected with 100 mg/kg LPS and survival of the mice was monitored twice daily.

T1 sequence (P19120 2-650 limits assumed): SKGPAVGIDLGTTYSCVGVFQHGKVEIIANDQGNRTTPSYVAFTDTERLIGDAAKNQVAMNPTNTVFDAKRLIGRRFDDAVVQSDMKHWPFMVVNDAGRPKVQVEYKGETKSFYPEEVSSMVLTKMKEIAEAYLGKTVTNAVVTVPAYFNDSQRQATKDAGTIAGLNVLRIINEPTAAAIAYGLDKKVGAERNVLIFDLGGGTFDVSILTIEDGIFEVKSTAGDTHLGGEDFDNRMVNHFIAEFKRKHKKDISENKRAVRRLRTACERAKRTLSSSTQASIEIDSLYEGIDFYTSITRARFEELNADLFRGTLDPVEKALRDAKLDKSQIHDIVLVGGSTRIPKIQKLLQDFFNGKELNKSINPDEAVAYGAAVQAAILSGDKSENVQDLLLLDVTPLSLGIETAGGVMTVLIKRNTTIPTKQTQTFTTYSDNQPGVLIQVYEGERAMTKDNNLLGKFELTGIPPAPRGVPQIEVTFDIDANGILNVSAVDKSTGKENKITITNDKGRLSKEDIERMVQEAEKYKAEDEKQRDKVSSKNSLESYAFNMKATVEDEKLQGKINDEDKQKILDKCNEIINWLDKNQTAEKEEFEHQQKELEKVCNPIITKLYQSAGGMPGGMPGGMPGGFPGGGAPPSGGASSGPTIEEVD

Compound: RVNLPIALRY [D2RP, control peptide]
inhibition of the production of TNF-α [1]: no ability to inhibit

binding to hsc70 coated ELISA plates (recombinant hsc70; direct binding, streptavidin-HRP detection): dose dependent binding
Compound: biotinylated-2702.75-84: peptide 2702.75-84 with biotin attached to the N-terminus via a six carbon spacer

Compound: CC[C@H](C)[C@H](NC(=O)[C@H](CCCNC(=N)N)NC(=O)[C@H](CC(C)C)NC(=O)[C@H](CC(N)=O)NC(=O)[C@H](CCC(=O)O)NC(=O)[C@@H](N)CCCNC(=N)N)C(=O)N[C@@H](C)C(=O)N[C@@H](CC(C)C)C(=O)N[C@@H](CCCNC(=N)N)C(=O)N[C@@H](Cc1ccc(O)cc1)C(N)=O [2702.75-84, Arg-Glu-Asn-Leu-Arg-Ile-Ala-Leu-Arg-Tyr]
effect on transplant survival over the control treatment ([2]; 40 mg/kg/day): no observable effect
heart allograft survival ([2]; 80 mg/kg/day (days 0-9), PBS/DMSO controls 8±1.4 days): 10.7±2.6 days
IC50 (recombinant hsc70; competition with 3 μM biotinylated-2702.75-84, 3 hrs room temperature, read-out: Half maximal inhibition (IC50) of binding of biotinylated-2702.75-84 to hsc70): 7 ± 3 µM
Graft survival (mean±SEM) ([3]; 1 μg peptide injected directly into the allograft, untreated controls 13.9±0.9): 13.3 ± 0.75 days
Graft survival (mean±SEM) ([3]; 400 μg peptide injected directly into the allograft): 22.0 ± 0.58 days

Compound: REDLRTLLRY [compound 2705]
effect on T-cell proliferation [4]: no effect
effect on T-cell mediated target cell lysis [5]: no effect
effect on HO activity [6]: inactive
survival of mice after LPS [7]: died on day one
